Assay type in all cases: cell-based
One assay deals with L1210S. Nature of the assay: cells. As to conditions: read-out: T.C.D.50.
The next assay concerns L1210 MTX. Briefly: MTX and cisplatin cross-resistance test, 24 hour exposure.
For a further assay, the system named is L1210DDP. Briefly: cells.

The record followed here is patent US4740501A (priority 1985, dated 1988).

Where two headings read alike, the source gives them in different places.

`CN(Cc1cnc2nc(N)nc(N)c2n1)c1ccc(C(=O)N[C@@H](CCC(=O)O)C(=O)O)cc1` [MTX, methotrexate, reference compound]: the IC50 in the assay on L1210S came out at 5 nM; with L1210 MTX (Mus musculus, L1210 MTX, characterisation of resistant line, read-out: T.C.D.50) it was 500 nM. In the assay with L1210 MTX, the “resistance of L1210 MTX compared to L1210S” value is listed as 100 times.

Consider `N.N.[Cl][Pt][Cl]` [cisplatin, cis-diamminedichloroplatinum (II), reference compound], for which the IC50 came out at 1500 nM with L1210S (parental L1210S) and 30 µM in the assay on L1210DDP (read-out: T.C.D.50). Besides, the “resistance of L1210DDP compared to L1210S” value in the assay with L1210DDP worked out at 20 fold.
